Measurements as given in US7704995B2 (Exelixis, Inc., priority 2003, dated 2010).
Where two headings read alike, the source gives them in different places.

Molecular target: T1, Chk1 (Homo sapiens, UniProt O14757)
T1 construct: purchased Upstate Biotechnology
T1 sequence (O14757 1-476): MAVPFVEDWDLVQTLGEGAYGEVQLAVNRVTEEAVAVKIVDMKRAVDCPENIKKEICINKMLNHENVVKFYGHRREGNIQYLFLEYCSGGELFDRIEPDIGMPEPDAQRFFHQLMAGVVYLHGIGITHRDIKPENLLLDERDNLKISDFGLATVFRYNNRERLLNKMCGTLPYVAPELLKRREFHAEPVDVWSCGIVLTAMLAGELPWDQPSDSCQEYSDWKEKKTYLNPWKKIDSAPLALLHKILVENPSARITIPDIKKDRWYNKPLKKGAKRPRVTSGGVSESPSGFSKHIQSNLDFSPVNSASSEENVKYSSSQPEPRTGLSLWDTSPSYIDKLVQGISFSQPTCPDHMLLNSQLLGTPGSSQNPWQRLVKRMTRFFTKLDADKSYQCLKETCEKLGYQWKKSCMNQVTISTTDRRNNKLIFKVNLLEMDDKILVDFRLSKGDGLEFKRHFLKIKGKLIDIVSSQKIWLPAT
Test: Chk1 kinase assay: incorporation of γ-33P ATP into immobilized myelin basic protein
Format: biochemical
Details: read-out: Chk1 IC50
Summary of the method: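 Immobilized-MBP radiometric kinase assay, room temperature for 1 h; ATP 10 μM (Chk1, 10 nM enzyme) or 30 μM (Chk2, 20 nM enzyme) with 33P tracer. Values are IC50s, with Ki derived from them.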

[1] = Table 11, Chk1 only, class symbols A-D

IC50 (Table 11, Chk1 only) [µM] | IC50 [µM] | Compound | other results
1 to 10 | – | C/C(=N\NC(=N)N)c1nc(-c2cccc(C(=O)NCc3ccccc3)c2)cnc1N [Example 633, 3-(5-amino-6-{(1E)-N-[amino(imino)methyl]ethanehydrazonoyl}pyrazin-2-yl)-N-(phenylmethyl)benzamide] | –
– | – | Nc1ncc(-c2cccc(CNC(=O)c3ccc(-c4ccc([N+](=O)[O-])cc4)o3)c2)nc1C(=O)N[C@H]1CCCNC1 [Example 986, 3-Amino-6-[3-({[5-(4-nitro-phenyl)-furan-2-carbonyl]-amino}-methyl)-phenyl]-pyrazine-2-carboxylic acid (3S)-piperidin-3-ylamide] | IC50 [1]: < 0.05 µM
– | 0.05 to 1 | CNC(=O)c1nc(-c2cccc(C(=O)NCc3ccc(C(F)(F)F)nc3)c2)cnc1N [Example 406, 3-amino-N-methyl-6-{3-[({[6-(trifluoromethyl)pyridin-3-yl]methyl}amino)carbonyl]phenyl}pyrazine-2-carboxamide] | –
– | < 0.05 | CNC(=O)c1nc(-c2cccc(C(=O)NCc3ccccc3-c3ccccc3)c2)cnc1N [Example 180, 3-amino-6-(3-{[(biphenyl-2-ylmethyl)amino]carbonyl}phenyl)-N-methylpyrazine-2-carboxamide] | –
– | ≥ 10 | CCCNc1ncc(-c2ccccc2)nc1C(N)=O [Example 40, 6-phenyl-3-(propylamino)pyrazine-2-carboxamide] | –
– | 1 to 10 | CNC(=O)c1nc(-c2cccc(C(=O)N(C)Cc3ccccc3)c2)cnc1N [Example 99, 3-amino-N-methyl-6-(3-{[methyl(phenylmethyl)amino]carbonyl}phenyl)pyrazine-2-carboxamide] | –
– | – | COc1cccc(-c2cnc(N)c(C(=O)N[C@H]3CCCNC3)n2)c1 [Example 961, 3-amino-6-[3-(methyloxy)phenyl]-N-[(3S)-piperidin-3-yl]pyrazine-2-carboxamide] | IC50 [1]: < 0.05 µM
– | – | Nc1ncc(-c2cccc(NC(=O)c3ccc(Br)cc3F)c2)nc1C(=O)N[C@H]1CCCNC1 [Example 909, 3-amino-6-(3-{[(4-bromo-2-fluorophenyl)carbonyl]amino}phenyl)-N-[(3S)-piperidin-3-yl]pyrazine-2-carboxamide] | IC50 [1]: < 0.05 µM
– | 0.05 to 1 | CNC(=O)c1nc(-c2cccc(C(=O)NCc3ccc(OC(F)(F)F)cc3)c2)cnc1N [Example 227, 3-amino-N-methyl-6-(3-{[({4-[(trifluoromethyl)oxy]phenyl}methyl)amino]carbonyl}phenyl)pyrazine-2-carboxamide] | –
– | – | Nc1ncc(-c2cccc(CNS(=O)(=O)c3ccc4c(c3)CCO4)c2)nc1C(=O)N[C@H]1CCCNC1 [Example 905, 3-amino-6-(3-{[(2,3-dihydro-1-benzofuran-5-ylsulfonyl)amino]methyl}phenyl)-N-[(3S)-piperidin-3-yl]pyrazine-2-carboxamide] | IC50 [1]: < 0.05 µM
– | – | Nc1ncc(-c2cccc(C(=O)N[C@H]3CCc4ccccc43)c2)nc1C(=O)N[C@H]1CCCCN(Cc2ccccc2)C1 [Example 972, 3-amino-6-(3-{[(1S)-2,3-dihydro-1H-inden-1-ylamino]carbonyl}phenyl)-N-[(3S)-1-(phenylmethyl)azepan-3-yl]pyrazine-2-carboxamide] | IC50 [1]: 0.05 to 1 µM
0.05 to 1 | – | Nc1ncc(-c2cccc(CN[C@H]3CCc4ccccc43)c2)nc1C(=O)NCC1CC1 [Example 543, 3-amino-N-(cyclopropylmethyl)-6-(3-{[(1S)-2,3-dihydro-1H-inden-1-ylamino}methyl}phenyl)pyrazine-2-carboxamide] | –
– | 1 to 10 | CCNC(=O)c1nc(-c2cccc(C(=O)OC)c2)cnc1N [Example 242, methyl 3-{5-amino-6-[(ethylamino)carbonyl]pyrazin-2-yl}benzoate] | –
– | ≥ 10 | CNC(=O)c1nc(-c2noc(Cc3ccccc3)n2)cnc1N [Example 70, 3-amino-N-methyl-6-[5-(phenylmethyl)-1,2,4-oxadiazol-3-yl]pyrazine-2-carboxamide] | –
1 to 10 | – | CNC(=O)c1nc(-c2cnc3ccccc3c2)cnc1N [Example 503, 3-amino-N-methyl-6-quinolin-3-ylpyrazine-2-carboxamide] | –
≥ 10 | – | CCn1nc(-c2nc(-c3cccc(C(=O)N[C@H]4CCc5ccccc54)c3)cnc2N)nc1C1CCCN(C(=O)OCc2ccccc2)C1 (stereo partly drawn) [Example 722, phenylmethyl 3-{3-[3-amino-6-(3-{[(1S)-2,3-dihydro-1H-inden-1-ylamino]carbonyl}phenyl)pyrazin-2-yl]-1-ethyl-1H-1,2,4-triazol-5-yl}piperidine-1-carboxylate] | –
< 0.05 | – | CNC(=O)c1nc(-c2cccc(CN[C@H]3c4ccccc4C[C@H]3O)c2)cnc1N [Example 453, 3-amino-6-[3-({[(1S,2R)-2-hydroxy-2,3-dihydro-1H-inden-1-yl]amino}methyl)phenyl]-N-methylpyrazine-2-carboxamide] | –

IC50 (Table 11, Chk1 only) [µM] | IC50 [µM] | Compound | other results
– | ≥ 10 | NC(=O)c1nc(-c2ccc(F)cc2F)cnc1N [Example 18, 3-amino-6-(2,4-difluorophenyl)pyrazine-2-carboxamide] | –
– | – | Cc1ccc(Cl)c(CNC(=O)c2cccc(-c3cnc(N)c(C(=O)N[C@H]4CCCNC4)n3)c2)c1F [Example 1012, 3-amino-6-[3-({[(6-chloro-2-fluoro-3-methylphenyl)methyl]amino}carbonyl)phenyl]-N-[(3S)-piperidin-3-yl]pyrazine-2-carboxamide] | IC50 [1]: < 0.05 µM
1 to 10 | – | Cn1nc(-c2nc(-c3cccc(C(=O)N[C@H]4CCc5ccccc54)c3)cnc2N)nc1[C@@H]1CCCN(C(=O)OCc2ccccc2)C1 [Example 754, phenylmethyl (3R)-3-{3-[3-amino-6-(3-{[(1S)-2,3-dihydro-1H-inden-1-ylamino]carbonyl}phenyl)pyrazin-2-yl]-1-methyl-1H-1,2,4-triazol-5-yl}piperidine-1-carboxylate] | –
1 to 10 | – | N=C(N)c1nc(-c2cccc(C(=O)N[C@H]3CCc4ccccc43)c2)cnc1N [Example 774, 3-{5-amino-6-[amino(imino)methyl]pyrazin-2-yl}-N-[(1S)-2,3-dihydro-1H-inden-1-yl]benzamide] | –
≥ 10 | – | C/C(=N\Nc1ccc(C)cc1)c1nc(-c2cccc(C(=O)NCc3ccccc3)c2)cnc1N [Example 602, 3-{5-amino-6-[(1E)-N-(4-methylphenyl)ethanehydrazonoyl]pyrazin-2-yl}-N-(phenylmethyl)benzamide] | –
0.05 to 1 | – | CCNC(=O)c1nc(-c2cccc(CN[C@H]3CCc4ccccc43)c2)cnc1N [Example 488, 3-amino-6-(3-{[(1S)-2,3-dihydro-1H-inden-1-ylamino]methyl}phenyl)-N-ethylpyrazine-2-carboxamide] | –
– | 0.05 to 1 | CNC(=O)c1nc(-c2cccc(C(=O)NCCOc3ccccc3)c2)cnc1N [Example 198, 3-amino-N-methyl-6-[3-({[2-(phenyloxy)ethyl]amino}carbonyl)phenyl]pyrazine-2-carboxamide] | –
< 0.05 | – | CNC(=O)c1nc(-c2cccc(CNC3CCc4ccc(F)cc43)c2)cnc1N (stereo not drawn) [Example 475, 3-amino-6-(3-{[(6-fluoro-2,3-dihydro-1H-inden-1-yl)amino]methyl}phenyl)-N-methylpyrazine-2-carboxamide] | –
– | – | Nc1ncc(-c2cccc(C(=O)NCc3c(F)ccc(F)c3F)c2)nc1C(=O)N[C@H]1CCNC1 [Example 815, 3-amino-N-[(3S)-pyrrolidin-3-yl]-6-[3-({[(2,3,6-trifluorophenyl)methyl]amino}carbonyl)phenyl]pyrazine-2-carboxamide] | IC50 [1]: 0.05 to 1 µM
0.05 to 1 | – | Nc1ncc(-c2cccc(CN[C@H]3CCc4ccccc43)c2)nc1C(=O)NCCCO [Example 561, 3-amino-6-(3-{[(1S)-2,3-dihydro-1H-inden-1-ylamino]methyl}phenyl)-N-(3-hydroxypropyl)pyrazine-2-carboxamide] | –
– | 0.05 to 1 | CNC(=O)c1nc(-c2cccc(C(=O)N[C@H]3CCCc4ccccc43)c2)cnc1N [Example 161, 3-amino-N-methyl-6-(3-{[(1S)-1,2,3,4-tetrahydronaphthalen-1-ylamino]carbonyl}phenyl)pyrazine-2-carboxamide] | –
1 to 10 | – | Nc1ncc(-c2cccc(CO)c2)nc1-c1nnc[nH]1 [Example 535, {3-[5-amino-6-(4H-1,2,4-triazol-3-yl)pyrazin-2-yl]phenyl}methanol] | –
0.05 to 1 | – | CNC(=O)c1cc(-c2cccc(CNC3CCc4cc(F)c(F)cc43)c2)cnc1N (stereo not drawn) [Example 523, 2-amino-5-(3-{[(5,6-difluoro-2,3-dihydro-1H-inden-1-yl)amino]methyl}phenyl)-N-methylpyridine-3-carboxamide] | –
– | 1 to 10 | CCOC(=O)N1CCN(CCOc2cccc(-c3cnc(N)c(C(=O)NC)n3)c2)CC1 [Example 195, ethyl 4-{2-[(3-{5-amino-6-[(methylamino)carbonyl]pyrazin-2-yl}phenyl)oxy]ethyl}piperazine-1-carboxylate] | –
– | 0.05 to 1 | CNC(=O)c1nc(-c2cccc(CNC(=O)c3cc(F)ccc3F)c2)cnc1N [Example 310, 3-amino-6-[3-({[(2,5-difluorophenyl)carbonyl]amino}methyl)phenyl]-N-methylpyrazine-2-carboxamide] | –
– | 0.05 to 1 | CNC(=O)c1nc(-c2cccc(C(=O)NCc3ccccc3N3CCCCC3)c2)cnc1N [Example 355, 3-amino-N-methyl-6-[3-({[(2-piperidin-1-ylphenyl)methyl]amino}carbonyl)phenyl]pyrazine-2-carboxamide] | –
